From patent US12545652B2, “Crystalline forms of a TYK2 inhibitor” (Sareum Limited, priority 2020, dated 2026)

Experiments:
[1] = Compression stability test (10×10^4N force); type: physicochemical
Method: Compression stability tests were carried out on samples from two batches of crystalline Form A and samples from two batches of Crystalline Form B. One pair of samples of Form A and Form B was subjected to compression under 10×10^4N force for 23 and 23¾ hours respectively to assess the impact upon form fate and chemical stability.
The other pair of samples of Form A and Form B was subjected to similar compression pressures over an extended duration of 7 days to assess the impact of prolonged compression force upon form fate and chemical stability.

[2] = Rapidly cooled, reverse anti-solvent addition crystallisation at −10° C., observations and form fate by XRPD; type: physicochemical; settings: for Observation: −10° C., 30 vol. anti-solvent; for Crystalline Form fate by XRPD: Reverse addition to anti-solvent at −10° C.
Method: Anti-solvent crystallisation was carried out by dissolving 2-(2,6-dichlorophenyl)-5-[4-(1,1-dioxo-1,4-thiazinane-4-carbonyl)anilino]oxazole-4-carboxamide in a solvent with heating, clarifying the solution and adding cold anti-solvent using the following method.
2-(2,6-dichlorophenyl)-5-[4-(1,1-dioxo-1,4-thiazinane-4-carbonyl)anilino]oxazole-4-carboxamide, 4×153-155 mg, was weighed into four crystallisation tubes and a different solvent (see Table 10) was charged into each. The mixtures were heated to 60° C. to achieve dissolution and then clarified.
Three anti-solvents (see Table 10), 1.5 ml, were each charged to four crystallisation tubes and cooled to −10° C.
The clarified solutions of 2-(2,6-dichlorophenyl)-5-[4-(1,1-dioxo-1,4-thiazinane-4-carbonyl)anilino]oxazole-4-carboxamide at 60° C. were charged to the cold anti-solvents in aliquots containing ca. 50 mg of the compound (into ca. 30 vol. anti-solvent) and immediate observations were noted.
The resulting mixtures were equilibrated at −10° C. for ca. 22 hours, observations were made and the solids were isolated. All isolated solids were dried in vacuo under air for ca. 20 minutes and then dried in vacuo at 45° C. for 23½ hours.

NC(=O)c1nc(-c2c(Cl)cccc2Cl)oc1Nc1ccc(C(=O)N2CCS(=O)(=O)CC2)cc1 [Form A, 2-(2,6-dichlorophenyl)-5-[4-(1,1-dioxo-1,4-thiazinane-4-carbonyl)anilino]oxazole-4-carboxamide]
HPLC assessment post-compression (chemical stability) ([1]; compression for 7 days): significant chemical degradation | XRPD examination of solids isolated post-compression (form fate) ([1]; compression for both ca. 1 and 7 days): diffraction pattern matching the input Form A but of reduced diffraction resolution | HPLC assessment post-compression (chemical stability) ([1]; compression for ca. 1 day (23 / 23¾ hours), 10×10^4N): no discernible chemical degradation | Observation ([2]; ID A1, THF/water, 4:1 10 vol., Heptane, 5 Hrs): Suspension | Observation ([2]; ID A1, THF/water, 4:1 10 vol., Heptane, 22 Hrs): Suspension | Observation ([2]; ID A1, THF/water, 4:1 10 vol., Heptane, Immediate): Gum | Observation ([2]; ID A2, THF/water, 4:1 10 vol., Benzotrifluoride, 5 Hrs): Suspension | Observation ([2]; ID A2, THF/water, 4:1 10 vol., Benzotrifluoride, 22 Hrs): Suspension | Observation ([2]; ID A2, THF/water, 4:1 10 vol., Benzotrifluoride, Immediate): Suspension | Observation ([2]; ID A3, THF/water, 4:1 10 vol., 2-Chlorobutane, 5 Hrs): Suspension | Observation ([2]; ID A3, THF/water, 4:1 10 vol., 2-Chlorobutane, 22 Hrs): Suspension | Observation ([2]; ID A3, THF/water, 4:1 10 vol., 2-Chlorobutane, Immediate): Suspension | Observation ([2]; ID B1, THF 25 vol., Heptane, 5 Hrs): Suspension | Observation ([2]; ID B1, THF 25 vol., Heptane, 22 Hrs): Suspension | Observation ([2]; ID B1, THF 25 vol., Heptane, Immediate): Suspension | Observation ([2]; ID B2, THF 25 vol., Benzotrifluoride, 5 Hrs): Suspension | Observation ([2]; ID B2, THF 25 vol., Benzotrifluoride, 22 Hrs): Suspension | Observation ([2]; ID B2, THF 25 vol., Benzotrifluoride, Immediate): Suspension | Observation ([2]; ID B3, THF 25 vol., 2-Chlorobutane, 5 Hrs): Suspension | Observation ([2]; ID B3, THF 25 vol., 2-Chlorobutane, 22 Hrs): Suspension | Observation ([2]; ID B3, THF 25 vol., 2-Chlorobutane, Immediate): Suspension | Observation ([2]; ID C1, Nitromethane 50 vol., Heptane, 5 Hrs): Bi. Susp. | Observation ([2]; ID C1, Nitromethane 50 vol., Heptane, 22 Hrs): Bi. Susp. | Observation ([2]; ID C1, Nitromethane 50 vol., Heptane, Immediate): Immiscible | Observation ([2]; ID C2, Nitromethane 50 vol., Benzotrifluoride, 5 Hrs): Solution | Observation ([2]; ID C2, Nitromethane 50 vol., Benzotrifluoride, 22 Hrs): Suspension | Observation ([2]; ID C2, Nitromethane 50 vol., Benzotrifluoride, Immediate): Solution | Observation ([2]; ID C3, Nitromethane 50 vol., 2-Chlorobutane, 5 Hrs): Solution | Observation ([2]; ID C3, Nitromethane 50 vol., 2-Chlorobutane, 22 Hrs): Haze | Observation ([2]; ID C3, Nitromethane 50 vol., 2-Chlorobutane, Immediate): Solution | Observation ([2]; ID D1, MeCN/water, 4:1 55 vol., Heptane, 5 Hrs): Bi. Susp. | Observation ([2]; ID D1, MeCN/water, 4:1 55 vol., Heptane, 22 Hrs): Bi. Susp. | Observation ([2]; ID D1, MeCN/water, 4:1 55 vol., Heptane, Immediate): Immiscible | Observation ([2]; ID D2, MeCN/water, 4:1 55 vol., Benzotrifluoride, 5 Hrs): Suspension | Observation ([2]; ID D2, MeCN/water, 4:1 55 vol., Benzotrifluoride, 22 Hrs): Suspension | Observation ([2]; ID D2, MeCN/water, 4:1 55 vol., Benzotrifluoride, Immediate): Haze | Observation ([2]; ID D3, MeCN/water, 4:1 55 vol., 2-Chlorobutane, 5 Hrs): Suspension | Observation ([2]; ID D3, MeCN/water, 4:1 55 vol., 2-Chlorobutane, 22 Hrs): Suspension | Observation ([2]; ID D3, MeCN/water, 4:1 55 vol., 2-Chlorobutane, Immediate): Haze | Crystalline Form fate by XRPD ([2]; MeCN/water, 4:1 55 vol., 2-Chlorobutane): Form B | Crystalline Form fate by XRPD ([2]; MeCN/water, 4:1 55 vol., Benzotrifluoride): Form B | Crystalline Form fate by XRPD ([2]; MeCN/water, 4:1 55 vol., Heptane): Form A | Crystalline Form fate by XRPD ([2]; Nitromethane 50 vol., 2-Chlorobutane): Form B/C mix | Crystalline Form fate by XRPD ([2]; Nitromethane 50 vol., Benzotrifluoride): Form C | Crystalline Form fate by XRPD ([2]; Nitromethane 50 vol., Heptane): Form C | Crystalline Form fate by XRPD ([2]; THF 25 vol., 2-Chlorobutane): Low cryst. Form C | Crystalline Form fate by XRPD ([2]; THF 25 vol., Benzotrifluoride): Low cryst. Form B | Crystalline Form fate by XRPD ([2]; THF 25 vol., Heptane): Low cryst. Form B + | Crystalline Form fate by XRPD ([2]; THF/water, 4:1 10 vol., 2-Chlorobutane): Low cryst. Form B | Crystalline Form fate by XRPD ([2]; THF/water, 4:1 10 vol., Benzotrifluoride): Low cryst. Form B | Crystalline Form fate by XRPD ([2]; THF/water, 4:1 10 vol., Heptane): Low cryst. Form B
